Measured values: patent US20220257777A1, “HSP90-BINDING CONJUGATES AND COMBINATION THERAPIES THEREOF” (TVA (ABC), LLC, priority 2019, published 2022)
Where two headings read alike, the source gives them in different places. Marks after values point to notes of the source that are not given here.

Experiments:
[1] = Tumor exposure of Conjugate 1 and SN-38 in H1975 mouse xenograft model at 24 h; assay type: in vivo; details: for concentration at 24 h: mouse, in vivo; for SN-38 in tumor at 24 h: H1975 model
advanced solid tumors = assay: Phase 1/2a study, tumor response; assay type: in vivo, human
Text: (§1) In a Phase 1/2a study of Conjugate 1, patients received weekly Conjugate 1 treatment for 3 of 4 weeks in a 28-day cycle. The patients have histologically or cytologically confirmed advanced solid tumors. Their tumor types included anus, breast, cholangiocarcinoma, colon, Ewing sarcoma, liver, lung, neuroendocrine (unknown primary), ovary, pancreas, salivary gland, and sarcoma. They have received one or more prior lines of anticancer therapy. The patients received flat dosings or dosings based on body surface area (BSA). The doses included 30 mg, 60 mg, 120 mg, 240 mg, 360 mg, 175 mg/m^2, and 200 mg/m^2. […] BSA-based dosing will be used for future studies.
120-360 mg flat dose and 175 mg/m2 BSA dose were associated with stable disease that was maintained for ≥12 weeks.

[2] = Levels of Conjugate 1 and SN-38 in patient tumor biopsy and plasma at 24 h; assay type: in vivo, human
Experimental: A pancreatic cancer patient received Conjugate 1 at a dose of 150 mg/m^2 and underwent a tumor biopsy to determine Conjugate 1 and SN-38 levels in tumor and plasma. Samples were taken 24 h after the second dose of 150 mg/m^2 Conjugate 1 from a liver metastasis.
Conjugate 1 and SN-38 levels in tumor are much higher than the levels in plasma.

[3] = Phase 1/2a study, maximum tolerated dose and adverse events; assay type: in vivo, human
Text: as §1
AEs are well-managed with dose modification.

[4] = Phase 1/2a study, plasma pharmacokinetics of Conjugate 1 and SN-38; assay type: in vivo, human
Text: as §1
To study pharmacokinetics (PK) profile, multiple plasma samples were collected to measure Conjugate 1 and SN-38 concentrations. […] Elimination half-life was ˜10 hours across all dose ranges. Free SN-38 levels were generally low. AUC is <2% of the conjugate (Conjugate 1) AUC.

[5] = tested on: H1975 (NSCLC) mouse xenograft; assay: Efficacy in H1975 (NSCLC) mouse xenograft model; assay type: in vivo
[6] = cited from earlier work; for Ratio of tumor level/plasma level: after Onivyde treatment at 72 h; for Amount in Tumor: patient biopsies after Onivyde treatment at 72 h (13 patients); for Amount in Plasma: patients after Onivyde treatment at 72 h (13 patients)
[7] = patients dosed with Conjugate 1, plasma

SMILES: CCc1c2c(nc3ccc(OC(=O)N4CCC(CCn5ccc6cc(-n7c(O)nnc7-c7cc(C(C)C)c(O)cc7O)ccc65)CC4)cc13)-c1cc3c(c(=O)n1C2)COC(=O)[C@]3(O)CC [Conjugate 1, (S)-4,11-diethyl-4-hydroxy-3,14-dioxo-3,4,12,14-tetrahydro-1H-pyrano[3′,4′:6,7]indolizino[1,2-b]quinolin-9-yl 4-(2-(5-(3-(2,4-dihydroxy-5-isopropylphenyl)-5-hydroxy-4H-1,2,4-triazol-4-yl)-1H-indol-1-yl)ethyl)piperidine-1-carboxylate]
- concentration at 24 h ([1]; 50 mg/kg): 163 nM
- concentration at 24 h ([1]; 100 mg/kg): 149 nM
- concentration at 24 h ([1]; 150 mg/kg): 4990 nM
- Time stable disease was maintained (advanced solid tumors; 120-360 mg flat dose and 175 mg/m2 BSA dose): ≥ 12 weeks
- Patients achieving partial response (PR; reduction of tumor size by 30% or more) (advanced solid tumors; of the 17 patients who received Conjugate 1 treatment): one
- SN-38 tumor level relative to SN-38 tumor level of patients who received Onivyde ([2]; human, in vivo, 24 h): about 3.5 fold
- Maximum tolerated dose (MTD), monotherapy ([3]; patients with advanced solid tumors, weekly for 3 of 4 weeks in a 28-day cycle): 175 mg/m^2
- Most common AEs ([3]; patients, Phase 1): nausea, fatigue, diarrhea, vomiting and alopecia
- Overall safety / adverse event profile ([3]; patients, Phase 1): safe and has an expected adverse (AE) event profile
- half-life ([4]; human, in vivo, Elimination half-life): ~10 h
- Dose proportionality of PK ([4]; patients, 30 mg to 200 mg/m^2): non-linear PK at lower doses, but greater proportionality was observed at higher doses
- Linker stability in circulation ([4]; patients, PK analyses): stable in circulation
- Efficacy in the xenograft model ([5]; weekly dose of 150 mg/kg): tumor regression
- Efficacy in the xenograft model ([5]; weekly doses of 72 mg/kg and 100 mg/kg): significant efficacy

SMILES: CCc1c2c(nc3ccc(OC(=O)N4CCC(N5CCCCC5)CC4)cc13)-c1cc3c(c(=O)n1C2)COC(=O)[C@]3(O)CC [Irinotecan]
- Ratio of tumor level/plasma level [6]: About 0.5
- Ratio of tumor level/plasma level ([6]; listed as irinotecan): about ½
- Amount in Tumor [6]: 4043 nM
- Amount in Plasma [6]: 7.921 µM

SMILES: CCc1c2c(nc3ccc(O)cc13)-c1cc3c(c(=O)n1C2)COC(=O)[C@]3(O)CC [SN-38, reference compound]
- Ratio of tumor level/plasma level [6]: About 4.2
- Amount in Tumor [6]: 24.5 nM
- Amount in Plasma [6]: 0.0059 µM
- SN-38 in tumor at 24 h ([1]; Conjugate 1 50 mg/kg): 98 nM
- SN-38 in tumor at 24 h ([1]; Conjugate 1 100 mg/kg): 18.4 nM
- SN-38 in tumor at 24 h ([1]; Conjugate 1 150 mg/kg): 221 nM
- Amount in Plasma ([2]; at 24 h, average of 5 patients dosed at 175 mg/m^2 Conjugate 1): 25.5* nM
- Ratio of tumor level/plasma level ([2]; at 24 h, tumor at 150 mg/m^2, plasma at 175 mg/m^2 Conjugate 1): About 3.4
- Amount in Tumor ([2]; pancreatic cancer patient, liver metastasis biopsy, 24 h after the second dose of 150 mg/m^2 Conjugate 1): 86.6 nM
- Free SN-38 AUC as share of the conjugate (Conjugate 1) AUC [4, 7]: < 2%
- Free SN-38 levels / systemic exposure to free SN-38 [4, 7]: generally low
- Free SN-38 levels / systemic exposure to free SN-38 ([4]; patients dosed with Conjugate 1, plasma, listed as SN-28): low
